In patent US12359203B2, “Combination vectors and methods for treating cancer” (American Gene Technologies International Inc., priority 2016, dated 2025):

Legend:
PC3 tumors = assay: PC3 tumor growth in NOD/SCID mice, transduced cells with or without zoledronic acid; type: in vivo; details: single dose of zoledronic acid
Description: Protocol overview for co-administration of LV-shRNA-FDPS (farnesyl diphosphate synthase) with or without zoledronic acid in mice implanted with human prostate cancer cell line PC3. Tumor cells were cultured in vitro, then transduced with lentivirus vector control with a scrambled sequence (nonfunctional) shRNA insert and an expression cassette for firefly luciferase, or LV-FDPS with a shRNA capable of reducing expression of FDPS mRNA and an expression cassette for firefly luciferase. The transduced tumor cells were implanted on the flank of immune deficient mice by subcutaneous injection. Once tumors reached approximately 200 mm^3 volume, all mice receive a single dose of zoledronic acid (100 micrograms per kilogram body weight, which is similar to a standard human dose) in saline. 7 days after zoledronic acid injection, an imaging study was repeated to measure volume and photon intensity of individual tumors.
Day—4: Material Preparation and Delivery. Prepare lenti-vector control and lenti-shRNA-FDPS transduced PC3 cells. • 1. […]
Effects of LV-shRNA-FDPS with or without zoledronic acid on PC3 tumor growth in NOD/SCID mice. […] A bioluminescence imaging study on Day 8 determined the average tumor sizes prior to zoledronic acid treatment (FIG. 10A). The photon intensity for tumors was measured with a CCD light capture system.

human CD47 = assay: CD47 mRNA expression in Hep3B cells (quantitative RT-PCR); type: cell-based; details: 48 hours after transduction, mRNA normalized to actin, FIG. 7A
Description: Functional Assay: The effect of different CD47 shRNA targeting sequences on CD47 expression was determined by measuring mRNA expression. Hep3B hepatocellular carcinoma cells were transduced with a lentiviral vector containing CD47 shRNA sequences. After 48 hours, cells were lysed and RNA was extracted using the RNeasy mini kit from Qiagen. cDNA was then synthesized from RNA using SuperScript VILO from Invitrogen. The samples were then analyzed by quantitative RT-PCR using an Applied Biosystems StepOne PCR machine. CD47 expression was detected with SYBR Green from Invitrogen using the forward primer (5′-[…]-3′) (SEQ ID NO: 63) and reverse primer (5′-GCCTCTTGACATTCTCCTC-3′) (SEQ ID NO: 64). The samples were normalized by measuring actin expression using the forward primer (5′-AGCGCGGCTACAGCTTCA-3′) (SEQ ID NO: 61) and reverse primer (5′-[…]-3′) (SEQ ID NO: 65). The relative expression of CD47 was determined by its Ct value normalized to the level of actin for each sample.

human FDPS = assay: Functional assay for FDPS mRNA reduction (quantitative RT-PCR); type: cell-based; details: HepG2 cells, 48 hours after transduction, mRNA normalized to actin; FIG. 4A
Description: (§1) Vector Construction: For FDPS shRNA, oligonucleotide sequences containing BamHI and EcoRI restriction sites were synthesized by MWG operon. Oligonucleotide sequences were annealed by incubation at 70 degrees Celsius and cooling to room temperature. Annealed oligonucleotides were digested with the restriction enzymes BamHI and EcoRI for one hour at 37 degrees Celsius and then the enzymes were heat-inactivated at 70 degrees Celsius for 20 minutes. In parallel, the lentiviral vector was digested with the restriction enzymes BamHI and EcoRI for one hour at 37 degrees Celsius. […] The DNA concentration was determined and the vector to oligo sequence was ligated in the ratio 3:1 insert to vector. […] Cells were collected after 2-4 days and protein and RNA was analyzed for FDPS expression.
Functional Assay for mRNA Reduction: The effect of different FDPS short homology RNA (shRNA) targeting sequences on FDPS expression was determined by measuring mRNA expression. […] The samples were then analyzed by quantitative RT-PCR using an Applied Biosystems StepOne PCR machine. FDPS expression was detected with SYBR Green from Invitrogen using the forward primer (5′-[…]-3′) (SEQ ID NO: 59) and reverse primer (5′-[…]-3′) (SEQ ID NO: 60) with standard conditions for polymerase chain reaction analysis. […] The relative expression of FDPS was determined by its Ct value normalized to the level of actin for each sample.

FDPS = FDPS immunoblot in HepG2 cells infected with lentiviral vectors; type: cell-based, human; details: 48 hours, FIG. 4B
Description: HepG2 human hepatocellular carcinoma cells were infected with lentiviral vectors containing either the H1 promoter and a FDPS shRNA (SEQ ID NO: 4) sequence or the EF-1alpha promoter and the following miR30-based FDPS sequences:
After 48 hours, cells were lysed and an immunoblot was performed using an anti-FDPS (Thermo Scientific) and an anti-actin (Sigma) antibody for a protein loading control. […] Treatment with the miR30-based FDPS sequences decreased FDPS expression.

human cMyc = assay: cMyc mRNA expression in HepG2 cells (quantitative PCR); type: cell-based; details: 48 hours after transduction, mRNA normalized to actin, FIG. 8A
Description: as §1, with “cMyc” for “FDPS”
Functional Assay: The effect of different cMyc shRNA targeting sequences on cMyc expression was determined by measuring mRNA expression. […] The samples were then analyzed by quantitative PCR using an Applied Biosystems StepOne PCR machine. cMyc expression was detected with SYBR Green from Invitrogen using the forward primer (5′-GGACTATCCTGCTGCCAA-3′) (SEQ ID NO: 69) and reverse primer (5′-GCCTCTTGACATTCTCCTC-3′) (SEQ ID NO: 64). […] The relative expression of cMyc was determined by its Ct value normalized to the level of actin for each sample.

cMyc = cMyc immunoblot in SNU449 cells infected with lentiviral vectors; type: cell-based, human; details: 48 hours, FIG. 8B
Description: After 48 hours, cells were lysed and an immunoblot was performed using an anti-cMyc (Santa Cruz) and an anti-actin (Sigma) antibody for a protein loading control.

`O=P(O)(O)C(O)(Cn1ccnc1)P(=O)(O)O` [zoledronic acid] was tested, and the toxicity in mice (PC3 tumors) was “not toxic”.

With “CD47 sequence 1: CD47 shRNA, SEQ ID NO: 5 (DNA GGTGAAACGATCATCGAGCCTCGAGGCTCGATGATCGTTTCACCTTTTT)” the “relative expression level of human CD47” value (human CD47) was “most significant inhibition”.

For “CD47 sequence 3: CD47 shRNA, SEQ ID NO: 7 (DNA CCTCCTTCGTCATTGCCATCTCGAGATGGCAATGACGAAGGAGGTTTTT)”, the “relative expression level of human CD47” value (human CD47) was “most significant inhibition”.

For “FDPS-2: FDPS shRNA, SEQ ID NO: 2 (DNA GCAGGATTTCGTTCAGCACTTCTCGAGAAGTGCTGAACGAAATCCTGCTTTTT)”, the “relative expression level of human FDPS” value (human FDPS) was “most significant inhibition”.

“FDPS-4: FDPS shRNA, SEQ ID NO: 4; used with H1 promoter in FIG. 4B (DNA GCAGAAGGAGGCTGAGAAAGTCTCGAGACTTTCTCAGCCTCCTTCTGCTTTTT)” was tested, and the “relative expression level of human FDPS” value (human FDPS) was “most significant inhibition” and the FDPS protein expression (FDPS) was “significantly decreased”.

For “cMyc shRNA Sequence 2: cMyc shRNA, SEQ ID NO: 11 (DNA GCGAACACACAACGTCTTGGACTCGAGTCCAAGACGTTGTGTGTTCGCTTTT)”, the “relative expression level of human cMyc” value (human cMyc) was “most significant inhibition”.

For “cMyc shRNA Sequence 4: cMyc shRNA, SEQ ID NO: 13; used in FIG. 8B (GAGAATGTCAAGAGGCGAACACTCGAGTGTTCGCCTCTTGACATTCTCTTTTT)”, the cMyc protein expression (cMyc) was “significantly decreased”.
